From ChEMBL document CHEMBL1138978, “Studies toward the discovery of the next generation of antidepressants. Part 5: 3,4-Dihydro-2H-benzo[1,4]oxazine derivatives with dual 5-HT1A receptor and serotonin transporter affinity” (Bioorg Med Chem Lett, 2006) come the findings set out here.

Structures are written as SMILES.

For experiment [1], the target named is T1, 5-hydroxytryptamine receptor 1A (Homo sapiens) (UniProt P08908).
T1 sequence (whole entry): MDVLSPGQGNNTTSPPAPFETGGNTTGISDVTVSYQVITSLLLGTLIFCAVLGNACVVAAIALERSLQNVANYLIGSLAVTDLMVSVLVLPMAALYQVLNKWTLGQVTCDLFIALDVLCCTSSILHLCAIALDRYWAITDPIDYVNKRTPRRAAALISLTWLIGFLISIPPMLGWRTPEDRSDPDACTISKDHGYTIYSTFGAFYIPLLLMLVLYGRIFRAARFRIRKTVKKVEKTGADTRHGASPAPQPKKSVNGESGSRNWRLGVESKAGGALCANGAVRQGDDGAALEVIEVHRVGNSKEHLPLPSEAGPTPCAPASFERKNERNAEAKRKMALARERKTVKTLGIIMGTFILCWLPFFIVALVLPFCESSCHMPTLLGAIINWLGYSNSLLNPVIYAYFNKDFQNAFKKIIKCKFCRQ
Briefly: Agonist activity assessed by stimulation of [35S]GTPgammaS binding in CHO cells expressing 5HT1A receptor relative to 5HT. It counts as functional, cell-based.

Experiment [2] concerns the target Sodium-dependent serotonin transporter (Rattus norvegicus, UniProt P31652). Briefly: Displacement of [3H]paroxetine from rat cortical 5-HT reuptake.
Experiment [3] addresses T2, 5-hydroxytryptamine receptor 1A (Homo sapiens, UniProt P08908).
T2 sequence (P08908 whole entry): T1 sequence (whole entry)
The experiment is described as follows: Displacement of [3H]8-OH-DPAT from 5HT1A receptor expressed in CHO cells. It counts as cell-based. On the technique in general: Loss of bound radioactivity is the signal in a displacement assay; it reports binding, not function.

In experiment [4] the target is T2, 5-hydroxytryptamine receptor 1A. Briefly: Intrinsic activity assessed by stimulation of [35S]GTP-gamma-S binding in CHO cells expressing 5HT1A receptor. It counts as functional, cell-based.
The target of experiment [5] is Sodium-dependent serotonin transporter (Rattus norvegicus) (UniProt P31652). The experiment is described as follows: Inhibition of [3H]paroxetine binding to rat cortical 5-HT reuptake at 100 nM.
For experiment [6], the target named is T3, Adrenergic receptor alpha-1 (Rattus norvegicus, UniProt P15823+P23944+P43140).
T3 sequence (P15823 whole entry): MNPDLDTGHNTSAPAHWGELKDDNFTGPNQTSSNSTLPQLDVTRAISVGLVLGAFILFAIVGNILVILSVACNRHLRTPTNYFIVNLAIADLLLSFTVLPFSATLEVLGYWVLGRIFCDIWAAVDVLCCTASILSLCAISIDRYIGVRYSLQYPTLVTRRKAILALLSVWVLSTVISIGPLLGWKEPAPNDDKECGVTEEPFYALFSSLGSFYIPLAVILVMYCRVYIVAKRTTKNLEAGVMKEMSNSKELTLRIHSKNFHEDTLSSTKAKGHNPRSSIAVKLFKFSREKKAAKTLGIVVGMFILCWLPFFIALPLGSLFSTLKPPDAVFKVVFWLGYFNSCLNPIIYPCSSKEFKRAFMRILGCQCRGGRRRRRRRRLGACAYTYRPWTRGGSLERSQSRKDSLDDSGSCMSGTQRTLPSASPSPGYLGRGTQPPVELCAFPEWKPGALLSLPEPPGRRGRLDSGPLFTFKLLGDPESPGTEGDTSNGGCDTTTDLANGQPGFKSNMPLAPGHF
T3 sequence (P23944 whole entry): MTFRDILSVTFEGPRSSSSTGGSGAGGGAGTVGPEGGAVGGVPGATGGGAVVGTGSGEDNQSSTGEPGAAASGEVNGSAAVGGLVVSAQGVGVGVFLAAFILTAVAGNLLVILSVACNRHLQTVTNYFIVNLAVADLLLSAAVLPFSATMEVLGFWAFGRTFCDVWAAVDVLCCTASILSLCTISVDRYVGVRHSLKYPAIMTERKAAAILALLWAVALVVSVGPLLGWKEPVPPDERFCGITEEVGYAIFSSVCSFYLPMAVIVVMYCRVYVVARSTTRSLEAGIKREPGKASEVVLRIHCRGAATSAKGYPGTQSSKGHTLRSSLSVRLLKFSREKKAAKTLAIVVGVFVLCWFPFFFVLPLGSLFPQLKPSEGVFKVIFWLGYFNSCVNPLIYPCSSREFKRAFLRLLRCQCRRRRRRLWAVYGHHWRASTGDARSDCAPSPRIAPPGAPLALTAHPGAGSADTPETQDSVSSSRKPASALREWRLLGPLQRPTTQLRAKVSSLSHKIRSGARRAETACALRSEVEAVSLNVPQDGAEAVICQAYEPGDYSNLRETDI
T3 sequence (P43140 whole entry): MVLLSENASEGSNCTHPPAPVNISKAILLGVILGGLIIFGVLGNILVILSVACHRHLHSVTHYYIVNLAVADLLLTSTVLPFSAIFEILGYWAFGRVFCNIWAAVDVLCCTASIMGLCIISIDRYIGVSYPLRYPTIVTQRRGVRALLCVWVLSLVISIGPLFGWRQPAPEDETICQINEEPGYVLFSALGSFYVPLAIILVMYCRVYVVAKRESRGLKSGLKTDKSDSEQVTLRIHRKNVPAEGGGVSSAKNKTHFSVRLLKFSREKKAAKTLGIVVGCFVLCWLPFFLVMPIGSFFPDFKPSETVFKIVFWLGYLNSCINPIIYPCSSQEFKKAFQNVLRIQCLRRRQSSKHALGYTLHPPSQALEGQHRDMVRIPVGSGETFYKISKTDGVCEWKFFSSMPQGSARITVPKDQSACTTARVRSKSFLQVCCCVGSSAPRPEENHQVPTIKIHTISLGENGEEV
The experiment is described as follows: Displacement of [3H]prazosin from adrenergic alpha-1 receptor in rat cortical membrane. It counts as cell membranes.

Experiment [7] addresses Adrenergic receptor alpha-1 (Rattus norvegicus) (UniProt P15823+P23944+P43140). The experiment is described as follows: Inhibition of [3H]prazosin binding to adrenergic alpha-1 receptor in rat cortical membrane at 100 nM. The class given is cell membranes.

Sequence of Sodium-dependent serotonin transporter (Rattus norvegicus) (P31652 whole entry): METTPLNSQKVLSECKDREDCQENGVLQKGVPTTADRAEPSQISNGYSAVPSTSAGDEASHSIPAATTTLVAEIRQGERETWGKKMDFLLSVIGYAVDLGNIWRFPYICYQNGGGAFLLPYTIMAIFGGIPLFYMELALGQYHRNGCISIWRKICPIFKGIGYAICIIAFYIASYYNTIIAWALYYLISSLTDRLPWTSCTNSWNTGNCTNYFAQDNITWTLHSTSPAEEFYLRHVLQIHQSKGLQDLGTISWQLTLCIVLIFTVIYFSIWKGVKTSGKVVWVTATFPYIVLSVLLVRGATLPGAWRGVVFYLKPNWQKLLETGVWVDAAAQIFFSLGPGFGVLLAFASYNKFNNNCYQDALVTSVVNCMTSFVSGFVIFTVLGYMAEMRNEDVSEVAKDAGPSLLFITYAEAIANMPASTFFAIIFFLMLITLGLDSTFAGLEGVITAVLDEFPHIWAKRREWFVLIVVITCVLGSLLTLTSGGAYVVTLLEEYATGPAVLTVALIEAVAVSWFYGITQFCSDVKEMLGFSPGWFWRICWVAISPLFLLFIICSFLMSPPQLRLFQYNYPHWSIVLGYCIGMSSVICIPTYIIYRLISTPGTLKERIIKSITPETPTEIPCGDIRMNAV
Sequence of Sodium-dependent serotonin transporter (P31652 whole entry): as above

For `CC(C)N1CC(CNCCc2c[nH]c3ccc(F)cc23)Oc2ccccc21` (centres undefined), the Emax in experiment [1] was 90%. The Ki was determined as 0.0211 µM in experiment [2] and 0.00281 µM in experiment [3]. The same molecule had a concentration for a half-maximal effect (EC50) in experiment [4] of 0.191 µM.

In experiment [5], `c1ccc(N2CC(CNCCCc3c[nH]c4ccccc34)Oc3ccccc32)cc1` (centres undefined) came in with an inhibition of 7%. The same molecule returned a Ki in experiment [3] of 0.0758 µM.

Molecule `CN1CC(CNCCc2c[nH]c3ccc(F)cc23)Oc2cc(Cl)ccc21` (centres undefined) showed an Emax in experiment [1] of 64%. The inhibitory constant (Ki) was determined as 0.0426 µM in experiment [2], 0.0752 µM in experiment [3] and 0.607 µM in experiment [6]. In experiment [4], this molecule gave a concentration for a half-maximal effect (EC50) of 0.336 µM.

`CCCN1CC(CNCCc2c[nH]c3ccccc23)Oc2ccccc21` (centres undefined) had an Emax in experiment [1] of 100%. In addition, the inhibition constant (Ki) in experiment [2] amounted to 0.0227 µM; in experiment [3], 0.0128 µM; in experiment [6] it was 0.481 µM. Moreover, in experiment [4], the EC50 was found to be 0.196 µM.

As for `CCN1CC(CN2CC=C(c3c[nH]c4ccc(F)cc34)CC2)Oc2c(OC)cccc21` (centres undefined), in experiment [1], the maximal response (Emax) stood at 54%. Further, the Ki in experiment [2] was found to be 0.0132 µM; in experiment [6], 0.229 µM. This molecule also came in with an EC50 in experiment [4] of 0.418 µM.

As to `COc1cccc2c1OC(CNCCc1c[nH]c3ccc(F)cc13)CN2` (centres undefined), the Emax in experiment [1] was found to be 66%. Besides, the Ki came out at 0.00313 µM in experiment [2], 0.00931 µM in experiment [3] and 0.0076 µM in experiment [6]. Moreover, the midpoint of the response in experiment [4], the EC50, lay at 0.0522 µM.

As for `Fc1ccc2[nH]cc(CCNCC3CN(c4ccccc4)c4ccccc4O3)c2c1` (centres undefined), the inhibition stood at 65% in experiment [7] and 43% in experiment [5]. The affinity in experiment [3], expressed as Ki, was 0.00714 µM.

In experiment [1], `C1=C(c2c[nH]c3ccccc23)CCN(CC2CNc3ccccc3O2)C1` (centres undefined) registered a maximal effect (Emax) of 62%. Moreover, the Ki was 0.00837 µM in experiment [2] and 0.0166 µM in experiment [6]. Further, in experiment [4], the response was half-maximal at 1.13 µM (EC50).

For `COc1cccc2c1OC(CN1CC=C(c3c[nH]c4ccc(F)cc34)CC1)CN2` (centres undefined), the Emax in experiment [1] worked out at 35%. In addition, the inhibition constant (Ki) was 0.00694 µM in experiment [2] and 0.0145 µM in experiment [6]. The same molecule had an EC50 in experiment [4] of 0.386 µM.

For the molecule `COc1ccc2c(c1)OC(CNCCc1c[nH]c3ccc(F)cc13)CN2` (centres undefined), the Emax in experiment [1] was determined as 56%. Further, the inhibition constant (Ki) stood at 0.0117 µM in experiment [2], 0.103 µM in experiment [3] and 0.0445 µM in experiment [6]. Moreover, the response in experiment [4] was half-maximal at 0.181 µM (EC50).

`Fc1ccc2[nH]cc(CCNCC3CNc4ccccc4O3)c2c1` (centres undefined) gave an Emax in experiment [1] of 100%. The values for the Ki in experiment [2], in experiment [3] and in experiment [6] were 0.016 µM, 0.011 µM and 0.07 µM, respectively. This molecule also came in with an EC50 in experiment [4] of 0.155 µM.

In the case of `CN1CC(CNCCc2c[nH]c3ccccc23)Oc2ccccc21` (centres undefined), in experiment [1], the maximum response (Emax) was found to be 95%. Further, the inhibition in experiment [7] came to 28%. The Ki in experiment [2] is 0.0885 µM; in experiment [3] it was 0.00586 µM. The same molecule yielded an EC50 in experiment [4] of 0.0336 µM.

`CCCN1CC(CN2CC=C(c3c[nH]c4ccc(F)cc34)CC2)Oc2c(OC)cccc21` (centres undefined) yielded a maximum response (Emax) in experiment [1] of 92%. In addition, the Ki in experiment [2] amounted to 0.0226 µM; in experiment [6] it was 0.5055 µM. In experiment [4], this molecule displayed an EC50 of 0.135 µM.

In experiment [1], `COc1cccc2c1OC(CN1CC=C(c3c[nH]c4ccc(F)cc34)CC1)CN2C` (centres undefined) showed an Emax of 93%. Further, the values for the inhibition constant (Ki) in experiment [2] and in experiment [6] were 0.0126 µM and 0.0965 µM, respectively. In experiment [4], this molecule displayed a half-maximal effective concentration (EC50) of 0.19 µM.

Take `CC(C)N1CC(CNCCCc2c[nH]c3ccccc23)Oc2ccccc21` (centres undefined): the Emax in experiment [1] came to 88%. The inhibition constant (Ki) in experiment [2] was 0.0238 µM; in experiment [3], 0.0904 µM. The same molecule registered an EC50 in experiment [4] of 0.329 µM.

For the molecule `CN1CC(CNCCc2c[nH]c3ccc(F)cc23)Oc2ccccc21` (centres undefined), the Emax in experiment [1] is 80%. Besides, the inhibition in experiment [7] stood at 26%. For the same molecule, the Ki turned out to be 0.0124 µM in experiment [2] and 0.00846 µM in experiment [3]. The EC50 in experiment [4] was 0.167 µM.

In turn, `c1ccc(CN2CC(CNCCCc3c[nH]c4ccccc34)Oc3ccccc32)cc1` (centres undefined) returned a maximum response (Emax) in experiment [1] of 64%. The inhibition constant Ki in experiment [2] is 0.109 µM; in experiment [3], 0.0761 µM. In experiment [4], this molecule registered a concentration for a half-maximal effect (EC50) of 1.39 µM.

Regarding `CCN1CC(CNCCc2c[nH]c3ccc(F)cc23)Oc2ccccc21` (centres undefined), the Emax in experiment [1] turned out to be 100%. In addition, the Ki in experiment [2] and in experiment [3] was 0.0153 µM throughout. In addition, the EC50 in experiment [4] was 0.09 µM.

`Fc1ccc2[nH]cc(CCNCC3CN(Cc4ccccc4)c4ccccc4O3)c2c1` (centres undefined) registered an inhibition in experiment [5] of 23%. In addition, the affinity in experiment [3] corresponds to a Ki of 0.00725 µM.

In experiment [5], `c1ccc(N2CC(CNCCc3c[nH]c4ccccc34)Oc3ccccc32)cc1` (centres undefined) registered an inhibition of 23%. In experiment [3], this molecule gave a Ki of 0.0302 µM.

Take `c1ccc2c(c1)NCC(CNCCc1c[nH]c3ccccc13)O2` (centres undefined): in experiment [1], the maximum response (Emax) was 96%. Further, the inhibition in experiment [7] was found to be 26%. Also, the values for the Ki in experiment [2] and in experiment [3] were 0.0898 µM and 0.00691 µM, respectively. In experiment [4], this molecule yielded a concentration for a half-maximal effect (EC50) of 0.0935 µM.

On to `CC(C)CN1CC(CNCCc2c[nH]c3ccc(F)cc23)Oc2ccccc21` (centres undefined), for which the Emax in experiment [1] turned out to be 88%. For the same molecule, the Ki in experiment [2] amounted to 0.0515 µM; in experiment [3] it was 0.00815 µM. The same molecule displayed an EC50 in experiment [4] of 0.329 µM.

For orientation: Emax means the maximal effect, on the per cent scale that the assay sets. One may read the Ki as a measure of affinity in units of concentration, obtained from inhibition or displacement. As a reminder, the EC50 is the concentration needed to bring the measured effect to its halfway point. Low readings indicate an effect from little substance, high ones a need for much substance. Broadly, the inhibition is the relative decrease from the control value, in per cent. A higher inhibition goes with a strong effect.
